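How tested: cells in 96-well plates exposed to compound for 48 hours at five concentrations. At the GI50, growth is halved. TGI is the concentration that stops growth completely.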

Experiment in all cases: NCI-60 cell line screen, 48 h
For assay [1], the system named is PC-3 prostate.
Assay [2] deals with A498 renal.
For assay [3], the system named is OVCAR-5 ovarian.
For assay [4], the system named is U251 CNS.
Assay [5] relates to IGROV1 ovarian.
In assay [6] the test system is SK-OV-3 ovarian.
Assay [7] deals with OVCAR-8 ovarian.
In assay [8] the test system is SN12C renal.
Assay [9] concerns NCI-H226 lung.
Assay [10] deals with SF-539 CNS.

In the case of `NC(N)=NCCCCCNc1noc(Cc2c[nH]c3cc(Br)ccc23)n1`, the GI50 was 2.57 µM in [1]; over 100 µM in assay [2]; 24.9 µM in assay [3]; 2.78 µM in assay [4]; 4.55 µM in [5]; 24 µM in assay [6]. Also, the GI50 in assay [7] was 10.4 µM; in assay [8] it was 3.87 µM; in assay [9], 13.6 µM; in [10], 12.5 µM. The TGI in assay [1] is 79.6 µM; in assay [2] it was over 100 µM; in [3] it was over 100 µM; in assay [4] it was 14.9 µM; in assay [5], 19.4 µM; in assay [6], over 100 µM. Besides, the TGI was over 100 µM in assay [7], 18.8 µM in assay [8], 46.9 µM in [9] and 29.5 µM in assay [10].
In the case of `Cc1cc2c(cc1Cl)SC(=Nc1ccc(Cl)cc1)N(S(=O)(=O)c1ccccc1)S2(=O)=O`, the GI50 in assay [1] was 10.9 µM; in assay [3] it was 4.43 µM; in [4] it was 5.96 µM; in assay [5], 2.55 µM; in assay [6] it was 12 µM; in assay [7], 12.4 µM. The results for the GI50 in [8], in assay [9] and in [10] were 13.8 µM, 11.5 µM and 1.03 µM, respectively. Besides, the TGI in assay [1] was determined as 23.1 µM; in [3] it was 18.7 µM; in assay [4], 19.5 µM; in assay [5], 31.7 µM; in assay [6], 44.4 µM; in [7], 30.8 µM. For the same compound, the TGI amounted to 28.7 µM in assay [8], 35.4 µM in [9] and 3.53 µM in [10].
`O=C(CSC(c1ccccc1)c1ccccc1)N/N=C/c1ccc(Cl)cc1Cl`: the GI50 in assay [1] was 31.9 µM; in assay [2], 25.6 µM; in assay [3], 31.6 µM; in assay [4], 24 µM; in assay [5], 19.9 µM; in assay [7] it was 37.9 µM. Moreover, the figures for the GI50 in assay [8], in assay [9] and in assay [10] were 15.7 µM, 32.6 µM and 57.7 µM, respectively. Moreover, the TGI was over 100 µM in assay [1]; 52.1 µM in assay [2]; over 100 µM in [3]; 67.3 µM in assay [4]; 53.5 µM in [5]; over 100 µM in assay [7]. The values for the TGI in assay [8], in assay [9] and in assay [10] were 29.9 µM, over 100 µM and over 100 µM, respectively.
On to `COc1ccc(Nc2c3ccccc3nc3occ(Cl)c23)cc1`, for which the GI50 in assay [1] was under 0.01 µM; in assay [2], under 0.01 µM; in assay [3], 0.269 µM; in assay [5], 0.0634 µM; in assay [6] it was 0.765 µM; in [7], 0.0476 µM. For the same compound, the GI50 was 0.0858 µM in assay [8], 25.1 µM in assay [9] and under 0.0167 µM in assay [10]. The TGI in assay [1] was 13.6 µM; in [2] it was 0.121 µM; in assay [3] it was over 100 µM; in assay [5], over 77.2 µM; in assay [8] it was 19 µM; in [9], over 100 µM. Besides, in assay [10], the TGI came out at 1.39 µM.
`CN(CCCNC(=O)Cc1ccc2ccc3cccc4ccc1c2c34)CCCNc1cc(-c2ccc3ccccc3c2)nc2ccccc12`: the GI50 in assay [1] was 1.49 µM; in assay [2], 1.66 µM; in [3], 1.82 µM; in assay [4], 1.6 µM; in [5], 1.7 µM; in assay [6], 1.64 µM. For the same compound, the GI50 in [8] is 1.68 µM; in assay [9] it was 1.83 µM; in [10], 1.54 µM. Also, the TGI in assay [1] amounted to 3.22 µM; in [2], 3.19 µM; in [3], 3.28 µM; in assay [4] it was 3.05 µM; in assay [5], 3.58 µM; in [6] it was 3.06 µM. Further, the TGI in assay [8] was 3.29 µM; in assay [9] it was 3.83 µM; in assay [10], 2.98 µM.
Turning to `COc1ccc(-c2c[nH]c(=S)n2-c2ccc(OC)cc2)cc1`, the GI50 in assay [1], in [2], in [3], in assay [4], in assay [5] and in [7] was over 50 µM throughout. Also, the GI50 in assay [8], in [9] and in assay [10] was over 50 µM each time. In addition, the TGI in assay [1], in assay [2], in assay [3], in [4], in assay [5] and in assay [7] was over 50 µM throughout. Besides, the TGI in assay [8], in [9] and in [10] was over 50 µM each time.
For the compound `CCOC(=O)c1c[nH]c2oc(/C=N/N3CC(CN4CCOCC4)OC3=O)cc2c1=O` (stereo not given), the TGI in assay [1], in assay [3], in assay [4], in assay [5], in assay [6] and in assay [7] was over 100 µM in each case. The TGI in assay [8], in assay [9] and in assay [10] was over 100 µM in each case.
As for `O=C(Nc1ccc(CO)cc1)c1coc2ccccc2c1=O`, the GI50 in [1], in [3], in assay [4], in assay [5], in assay [6] and in assay [7] was over 100 µM throughout. Moreover, the GI50 in [8], in [9] and in assay [10] was over 100 µM in each case. The TGI in [1], in [3], in assay [4], in assay [5], in assay [6] and in assay [7] was over 100 µM throughout. The TGI in assay [8], in assay [9] and in assay [10] was over 100 µM throughout.
Regarding `N#C/C(=C/N1CCN(C(=O)c2ccco2)C1=S)C(=O)c1ccccc1`, the GI50 in [1] was 31.7 µM; in [4], 17 µM; in assay [5], 19.4 µM; in assay [6] it was 37.4 µM; in [7], 25.4 µM; in [8], 8.64 µM. Further, the GI50 in assay [10] was 2.21 µM. Moreover, the TGI is over 100 µM in assay [1]; over 100 µM in assay [4]; 70.7 µM in [5]; over 100 µM in [6]; over 100 µM in assay [7]; 25 µM in assay [8]. In addition, in [10], the TGI was 5.39 µM.
With `CC(C)OC(=O)NNc1cc(Cl)ccc1Cl`, the TGI in assay [1] was over 100 µM; in [2], 96.6 µM; in assay [3], over 100 µM; in assay [4], over 100 µM; in assay [5], over 100 µM; in assay [6] it was over 100 µM. Further, the TGI in [7], in assay [8] and in assay [10] was over 100 µM throughout.
As for `COc1ccc(-c2oc3cc(O)c(OC)c(O)c3c(=O)c2OC)cc1O`, the GI50 in [1] was 4.44 µM; in [2] it was 0.21 µM; in [4] it was 0.0708 µM; in [6], 0.207 µM; in [7], 0.375 µM; in [8], 0.212 µM. Besides, the GI50 is 2.5 µM in assay [9] and 0.0445 µM in assay [10]. The TGI in assay [1] was over 100 µM; in [2], 0.801 µM; in assay [4], over 100 µM; in assay [6], 16.4 µM; in [7], over 100 µM; in [8], over 100 µM. Moreover, the TGI in assay [9] is over 100 µM; in assay [10], 21.9 µM.
As for `COc1ccc(C(=O)COc2cccc(/C=C3\Oc4ccc5ccccc5c4C3=O)c2)cc1`, the GI50 was 1.54 µM in assay [1]; 20.6 µM in assay [2]; 12.7 µM in [3]; 6.42 µM in assay [4]; 4.57 µM in assay [7]; 1.76 µM in [8]. Further, the GI50 in assay [9] is 6.58 µM; in assay [10], 13.4 µM. Moreover, the TGI in [1] was found to be 3.23 µM; in [2], 37.1 µM; in [3], 25.3 µM; in assay [4] it was 19.6 µM; in assay [7] it was 14.9 µM; in assay [8], 3.85 µM. For the same compound, the TGI in assay [9] stood at 22.4 µM; in [10], 26.3 µM.
`O=C(Nc1ccc(-c2ccccc2)cc1)C1CCN(S(=O)(=O)c2ccccc2Cl)CC1`: the GI50 in assay [1] was 38 µM; in assay [3], 50 µM; in assay [4], 18.8 µM; in assay [5], 21.4 µM; in [6], 57.4 µM; in assay [7] it was 22.7 µM. The GI50 was 26.9 µM in assay [8], 30.2 µM in assay [9] and 12 µM in [10]. Also, the TGI was over 100 µM in [1]; over 100 µM in [3]; 67.3 µM in [4]; over 100 µM in assay [5]; over 100 µM in assay [6]; 57.1 µM in assay [7]. Besides, the figures for the TGI in assay [8], in assay [9] and in [10] were 90.2 µM, over 100 µM and 37.3 µM, respectively.
On to `CC(=O)/C=C/c1ccc(C#Cc2ccccc2)s1`, for which the GI50 in assay [1] is 15.7 µM; in assay [3], 15.9 µM; in assay [4], 16.8 µM; in assay [5] it was 18.3 µM; in [6], 17.3 µM; in [7], 19 µM. In addition, the GI50 in [8] was 17.1 µM; in [9], 18.4 µM; in assay [10], 17.3 µM. The TGI in assay [1] stood at 29 µM; in [3] it was 29.7 µM; in [4], 30.5 µM; in assay [5], 32.2 µM; in assay [6] it was 31.1 µM; in assay [7], 57.3 µM. For the same compound, the TGI is 31.4 µM in [8], 36.4 µM in assay [9] and 31 µM in assay [10].
Consider `CC(C)(C=O)CC(C#N)/C(=N\NC(N)=O)C(=O)Nc1ccccc1C(N)=O` (stereo not given), for which the TGI in assay [2], in assay [3], in [4], in [5], in [6] and in assay [7] was over 100 µM each time. In addition, the TGI in assay [8], in [9] and in assay [10] was over 100 µM in each case.
With `CC12CCCCC1(C)C2Sc1ccccc1` (stereo not given), the TGI in [2] was 98.2 µM; in [3] it was over 100 µM; in [4], over 67.2 µM; in assay [5], over 100 µM; in assay [6] it was over 100 µM; in [7], over 100 µM. In addition, the TGI in assay [8], in assay [9] and in assay [10] was over 100 µM each time.
On to `CC1(C)O/C(=C\c2ccccc2)C(=O)/C(=C/c2ccccc2)O1`, for which the TGI in [2] is over 100 µM; in assay [3] it was 60.8 µM; in [4], over 100 µM; in assay [5] it was over 100 µM; in assay [6] it was over 100 µM; in [7] it was over 100 µM. Moreover, the figures for the TGI in [8], in assay [9] and in assay [10] were over 100 µM, 96.3 µM and over 100 µM, respectively.
As to `COc1ccc2c(c1)[C@@]13CCCC[C@H]1[C@@H](C2)N(C)CC3=O`, the TGI in [1] is 29 µM; in assay [3], 33.3 µM; in assay [4] it was 58.9 µM; in assay [5] it was 32.8 µM; in [6], 53.9 µM; in [7] it was 42.1 µM. Moreover, the TGI in assay [8] was 50.4 µM; in assay [9], 57.9 µM.
On to `CC(C)CCCC(C)[C@H]1CCC2[C@H]3C(CC[C@@]21C)[C@@]1(C)CCC=C[C@]12C[C@@H]2[C@@H]3O` (stereo not given in full), for which the TGI in assay [2], in assay [3], in assay [4], in assay [5], in assay [6] and in assay [7] was over 100 µM in each case. Besides, the TGI in assay [8], in [9] and in [10] was over 100 µM in each case.

Values taken from PubChem BioAssay (NCI).
